One assay concerns Propionibacterium acnes. In words: Minimum Inhibitory Concentration (MIC), microplate dilution. The assay is classed as cell-based. Particulars: Cutibacterium acnes, anaerobiosis, 35° C., 96 hours, mg/ml of sample. On the procedure: Tests were carried out for evaluating the minimum inhibitory concentrations of 3 batches of the dried extract of inflorescences of macela-do-campo produced in accordance with the process of the present invention against Propionibacterium acnes.
The procedure used for this test is the following:
Preparation of inoculum: the microorganism to be used in testing was replicated to a glass flask containing 10 ml of sterilized culture medium broth (TSB); • the flaks were incubated at 35° C.+/−2° C. for 24 hours; • the above procedure was repeated for 2 consecutive days; • 100 microliters of TSB broth were distributed in a microplate with the exception of column 1; • column 1 was inoculated with 200 microliters of the sample to be tested previously prepared and solubilized; • dilutions were carried out by transferring 100 microliters of column 1 to column 2 and 100 microliters of column 2 to column 3 and thus successively until column 10. […] The plate in which Propionibacterium acnes was inoculated was incubated under anaerobosis at 35° C.+/−2° C. for 96 hours; • after the incubation period the reading was carried out, thus observing the turbidity of the wells; • the samples were weighed and diluted in the vehicle ethanol 96° GL/distilled water (1:1) according to the weights and volumes below: […]

In assay [1] the test system is smooth muscle of guinea pig corpus cavernosum. Particulars: cited from earlier work.
The test system of a further assay is P. acnes. The assay can be described thus: Bioautography of Propionibacterium acnes (HPTLC separation, inoculum overlay). The class given is cell-based. Particulars: incubation 72 hours, revealed with TTC. On the procedure:
Bioautographic trials were conducted to determine the classes of the compounds present in the extract of inflorescence of Achyrocline satureioides that perform the anti-bacterial activity against Propionibacterium acnes. The bioautography consists of the chromatographic separation of the compounds by HPTLC and the subsequent application of the inoculation to the culture medium over the chromatographic plate.

In a further assay the target is PDE 5A (Homo sapiens, UniProt O76074). Particulars: cited from earlier work.
Assay [2] has as its system smooth muscle of guinea pig tracheas. Particulars: guinea pig tracheas precontracted with histamine, carbachol, KCl and forskolin; cited from earlier work.
The test system of a further assay is PDE3. Particulars: cited from earlier work.
The next assay concerns PDE4. Particulars: cited from earlier work.
Assay [3] in a line: Antioxidant activity by DPPH. The class given is biochemical. The method, then: Tests were performed for the antioxidant activity by DPPH of the dried extract of macela-do-campo obtained by spray dryer. […] Trolox (a derivative of vitamin E sold by Hoffman LaRoche) was used as a standard of the aforesaid test and has its IC50 of antioxidant activity obtained with 0.005 mg/ml. Therefore, it can be concluded that the dried extract of macela-do-campo has extremely high antioxidant effectiveness, only 4 times less than Trolox.
A general note: Loss of DPPH colour is used to gauge radical scavenging.

≈ marks a conversion by molar mass, not a printed value.

A word on the MIC: it is the smallest concentration in the dilution series that meets the test's criterion for growth inhibition. Low readings indicate a more susceptible organism, high ones a less susceptible organism. The term IC50 denotes the midpoint of a concentration-inhibition curve. In turn, `O=c1c(O)c(-c2ccc(O)c(O)c2)oc2cc(O)cc(O)c12` [quercetin] showed a minimum inhibitory concentration (MIC) with Propionibacterium acnes of 36.4 µg/mL (≈ 120 µM). In addition, the “relaxant activity in smooth muscle of corpus cavernosum” value in assay [1] is reported as “show the same relaxant activity”. The “anti-microbial activity in bioautography (inhibition halos)” value in the assay on P. acnes was “main ingredients responsible for the anti-microbial activity”. Also, the IC50 at PDE 5A is 1.9 µM.
As for `COc1c(-c2ccc(O)c(O)c2)oc2cc(O)cc(O)c2c1=O` [3-O-methylquercetin], the “relaxant activity in smooth muscle of corpus cavernosum” value in assay [1] was “show the same relaxant activity”. Moreover, the “relaxation of smooth muscle of tracheas” value in assay [2] is listed as “capable of provoking the relaxation of the smooth muscle”. The 50% inhibitory concentration (IC50) was 1.6 µM with PDE3, 28.5 µM in the assay on PDE4 and 86.9 µM on PDE 5A. Besides, the “anti-microbial activity in bioautography (inhibition halos)” value with P. acnes is “main ingredients responsible for the anti-microbial activity”.
With `Cc1c(C)c2c(c(C)c1O)CCC(C)(C(=O)O)O2` (centres unmarked) [Trolox], the “IC50 of the antioxidant activity” value in assay [3] was 5 µg/mL.

(Values after patent publication US20130012577A1, “PROCESS TO OBTAIN A STANDARDIZED EXTRACT OF QUERCETIN AND 3-O-METHYLQUERCETIN FROM INFLORESCENCES OF MACELA-DO-CAMPO, A COSMETIC, PHARMACEUTICAL AND VETERINARY COMPOSITION CONTAINING EXTRACT OF MACELA-DO-CAMPO, THE USE OF THIS EXTRACT AND THE METHOD OF APPLICATION OF THE AFORESAID EXTRACT” (priority 2009, published 2013).)
